Test system: M. tuberculosis mc^26230
Format: cell-based

Row | Compound | MFI relative to untreated control | average fluorescence decreased by | effect of 18 hr pre-treatment prior to phage addition on DST signal | six hour pre-incubation to determine drug sensitivity | fluorescence of the M. tuberculosis cells diminished by
1 | NNC(=O)c1ccncc1 [isoniazid] | lower than the untreated control | 64% | increased the difference between treated and non-treated samples | not sufficient | –
2 | NC[C@H]1O[C@H](O[C@H]2[C@H](O)[C@@H](O[C@H]3O[C@H](CO)[C@@H](O)[C@H](N)[C@H]3O)[C@H](N)C[C@@H]2N)[C@H](O)[C@@H](O)[C@@H]1O [kanamycin] | – | – | – | – | approximately 85%
3 | CO[C@H]1/C=C/O[C@@]2(C)Oc3c(C)c(O)c4c(O)c(c(/C=N/N5CCN(C)CC5)c(O)c4c3C2=O)NC(=O)/C(C)=C\C=C\[C@H](C)[C@H](O)[C@@H](C)[C@@H](O)[C@@H](C)[C@H](OC(C)=O)[C@@H]1C [rifampicin] | – | – | – | – | approximately 85%

Reference: patent US9447449B2, “Recombinant mycobacteriophages for delivery of nucleic acids of interest into mycobacteria” (Albert Einstein College of Medicine of Yeshiva University, priority 2011, dated 2016)
